Converted amounts (≈) assume the structure as drawn. “And” between values parts separate entries of the source, which are not always exact repeats. Equal values may be shown once.
Legend:
Type in all cases: cell-based, Acinetobacter baumannii
A. baumannii ATCC 17978 = test: IC50 dose response, inhibition of bacterial growth (BacTiter-Glo viability); conditions: Acinetobacter baumannii, 11-point dose response
A. baumannii HUMC1 = test: MIC, broth microdilution in MHII, RPMI or modified media; conditions: for Rifabutin MIC: clinical isolate HUMC1
A. baumannii = test: MIC, broth microdilution, A. baumannii clinical isolates / strain panel

Work on CO[C@H]1/C=C/O[C@@]2(C)Oc3c(C)c(O)c4c(c3C2=O)C2=NC3(CCN(CC(C)C)CC3)NC2=C(NC(=O)/C(C)=C\C=C\[C@H](C)[C@H](O)[C@@H](C)[C@@H](O)[C@@H](C)[C@H](OC(C)=O)[C@@H]1C)C4=O [rifabutin] yielded an IC50 (A. baumannii ATCC 17978; ATCC17978, 24 h, ATCC 17978, RPMI + 50% Serum) of less than 0.847 nM, an IC50 (A. baumannii ATCC 17978; ATCC17978, ATCC 17978, RPMI + 50% Serum) of less than 0.847 nM and an IC50 (A. baumannii ATCC 17978; ATCC17978, ATCC 17978, RPMI) of 24 nM. It also gave an MIC (A. baumannii HUMC1; Acinetobacter baumannii, HUMC1, HUMC1, 5 × RPMI) of less than 0.0625 µg/mL, an MIC (A. baumannii HUMC1; Acinetobacter baumannii, HUMC1, HUMC1, 10-30 kDa MHII Fraction spiked into RPMI) of 8 µg/mL (≈ 9.44 µM) and an MIC (A. baumannii HUMC1; Acinetobacter baumannii, HUMC1, HUMC1, 25° C., MHII) of 4 µg/mL (≈ 4.72 µM). It also gave an MIC (A. baumannii HUMC1; Acinetobacter baumannii, HUMC1, HUMC1, 25° C., RPMI) of less than 0.06 µg/mL, an MIC (A. baumannii HUMC1; Acinetobacter baumannii, HUMC1, HUMC1, <10 kDa MHII Fraction spiked into RPMI) of 8 µg/mL (≈ 9.44 µM) and an MIC (A. baumannii HUMC1; Acinetobacter baumannii, HUMC1, HUMC1, Low Salt Luria Broth) of 2 µg/mL. It also gave an MIC (A. baumannii HUMC1; Acinetobacter baumannii, HUMC1, HUMC1, Luria Broth) of 1 µg/mL (≈ 1.18 µM), an MIC (A. baumannii HUMC1; Acinetobacter baumannii, HUMC1, HUMC1, M9) of less than 0.05 µg/mL and an MIC (A. baumannii HUMC1; Acinetobacter baumannii, HUMC1, HUMC1, MHII (CAMHB)) of 4 µg/mL (≈ 4.72 µM). The MIC (A. baumannii HUMC1; Acinetobacter baumannii, HUMC1, HUMC1, MHII + 200 mg/L glucose) was 2 µg/mL, the MIC (A. baumannii HUMC1; Acinetobacter baumannii, HUMC1, HUMC1, MHII + 2,000 mg/L glucose) was 2 µg/mL and the MIC (A. baumannii HUMC1; Acinetobacter baumannii, HUMC1, HUMC1, MHII + Non-Essential Amino Acid Solution (100×)) was 3.12 µg/mL. For the same compound, the MIC (A. baumannii HUMC1; Acinetobacter baumannii, HUMC1, HUMC1, No Salt Luria Broth) was 1 µg/mL, the MIC (A. baumannii HUMC1; Acinetobacter baumannii, HUMC1, HUMC1, Non tissue culture treated 96-well plates) was 1.56 µg/mL (≈ 1.84 µM) and the MIC (A. baumannii HUMC1; Acinetobacter baumannii, HUMC1, HUMC1, RPMI + CCCP (2 μg/mL) + Essential Amino Acids) was 1.56 µg/mL. For the same compound, the MIC (A. baumannii HUMC1; Acinetobacter baumannii, HUMC1, HUMC1, RPMI + Essential Amino Acid Solution (50×)) was 1.56 µg/mL, the MIC (A. baumannii HUMC1; Acinetobacter baumannii, HUMC1, HUMC1, RPMI + Glutamic Acid 0.5 mM) was less than 0.048 µg/mL and the MIC (A. baumannii HUMC1; Acinetobacter baumannii, HUMC1, HUMC1, RPMI + Glycine 0.5 mM) was less than 0.048 µg/mL. It also gave an MIC (A. baumannii HUMC1; Acinetobacter baumannii, HUMC1, HUMC1, RPMI + L-Arginine 0.5 mM) of less than 0.048 µg/mL, an MIC (A. baumannii HUMC1; Acinetobacter baumannii, HUMC1, HUMC1, RPMI + L-Histidine 0.5 mM) of 1.56 µg/mL and an MIC (A. baumannii HUMC1; Acinetobacter baumannii, HUMC1, HUMC1, RPMI + L-Tryptophan 0.125 mM) of 1.56 µg/mL. The MIC (A. baumannii HUMC1; Acinetobacter baumannii, HUMC1, HUMC1, RPMI + Leucine 1 mM) was less than 0.048 µg/mL, the MIC (A. baumannii HUMC1; Acinetobacter baumannii, HUMC1, HUMC1, RPMI + Non-Essential Amino Acid Solution (100×)) was 0.781 µg/mL and the MIC (A. baumannii HUMC1; Acinetobacter baumannii, HUMC1, HUMC1, RPMI + Organic Layer, Proteinase K Digested) was 4 µg/mL. It also gave an MIC (A. baumannii HUMC1; Acinetobacter baumannii, HUMC1, HUMC1, RPMI + Organic layer, Sodium Periodate Treated) of 4 µg/mL, an MIC (A. baumannii HUMC1; Acinetobacter baumannii, HUMC1, HUMC1, RPMI + acetonitrile treated <10 kDa MHII fraction, Aqueous Layer) of less than 0.0312 µg/mL and an MIC (A. baumannii HUMC1; Acinetobacter baumannii, HUMC1, HUMC1, RPMI + acetonitrile treated <10 kDa MHII fraction, Organic Layer) of 4 µg/mL. The MIC (A. baumannii HUMC1; Acinetobacter baumannii, HUMC1, HUMC1, RPMI + efflux pump inhibitor CCCP (2 μg/mL)) was less than 0.05 µg/mL, the MIC (A. baumannii HUMC1; Acinetobacter baumannii, HUMC1, HUMC1, RPMI + efflux pump inhibitor thioridazine (16 μg/mL)) was 12.5 µg/mL and the MIC (A. baumannii HUMC1; Acinetobacter baumannii, HUMC1, HUMC1, RPMI Supplemented with MHII (hybrid media, equal parts)) was 8 µg/mL (≈ 9.44 µM). The MIC (A. baumannii HUMC1; Acinetobacter baumannii, HUMC1, HUMC1, Tissue culture treated 96-well plates) was 1.56 µg/mL (≈ 1.84 µM), the MIC (A. baumannii HUMC1; HUMC1, 5 × RPMI, listed as RBT) was 0.06 µg/mL (≈ 0.0708 µM) and the MIC (A. baumannii HUMC1; HUMC1, 10-30 kDa MHII Fraction spiked into RPMI, listed as RBT) was 8.00 µg/mL (≈ 9.44 µM). The “difference in MICs at lower temperature” value (A. baumannii HUMC1; HUMC1, 25° C. or 30° C. compared to 37° C., MHII or RPMI) was “did not observe any difference”, the MIC (A. baumannii HUMC1; HUMC1, 25° C., MHII, listed as RBT) was 4.00 µg/mL (≈ 4.72 µM) and the MIC (A. baumannii HUMC1; HUMC1, 25° C., RPMI, listed as RBT) was 0.05 µg/mL (≈ 0.059 µM). For the same compound, the MIC (A. baumannii HUMC1; HUMC1, <10 kDa MHII Fraction spiked into RPMI, listed as RBT) was 8 µg/mL and 8.00 µg/mL, the “effect of added iron on MIC” value (A. baumannii HUMC1; HUMC1, FeCl3 spiked into RPMI at 0.01, 0.10, and 0.30 μg/mL) was “did not have any effect” and the MIC (A. baumannii HUMC1; HUMC1, MHII (CAMHB in b45)) was 3.125 µg/mL (≈ 3.69 µM). For the same compound, the MIC (A. baumannii HUMC1; HUMC1, MHII (CAMHB in b45), listed as Rifabutin) was 3.125 µg/mL and 6.25 µg/mL, the MIC (A. baumannii HUMC1; HUMC1, MHII (CAMHB), listed as RBT) was 4.00 µg/mL and 6.25 µg/mL and the MIC (A. baumannii HUMC1; HUMC1, RPMI) was 0.0156 µg/mL (≈ 0.0184 µM). For the same compound, the MIC (A. baumannii HUMC1; HUMC1, RPMI + Glutamic Acid 0.5 mM, listed as RBT) was 0.05 µg/mL, the MIC (A. baumannii HUMC1; HUMC1, RPMI + Glycine 0.5 mM, listed as RBT) was 0.05 µg/mL and the MIC (A. baumannii HUMC1; HUMC1, RPMI + L-Arginine 0.5 mM, listed as RBT) was 0.05 µg/mL. It also gave an MIC (A. baumannii HUMC1; HUMC1, RPMI + Leucine 1 mM, listed as RBT) of 0.05 µg/mL, an MIC (A. baumannii HUMC1; HUMC1, RPMI + Non-Essential Amino Acid Solution (100×), listed as RBT) of 0.78 µg/mL and an MIC (A. baumannii HUMC1; HUMC1, RPMI + Organic Layer, Proteinase K Digested, listed as RBT) of 4.00 µg/mL. It also gave an MIC (A. baumannii HUMC1; HUMC1, RPMI + Organic layer, Sodium Periodate Treated, listed as RBT) of 4.00 µg/mL, an MIC (A. baumannii HUMC1; HUMC1, RPMI + acetonitrile treated <10 kDa MHII fraction, Aqueous Layer, listed as RBT) of 0.03 µg/mL and an MIC (A. baumannii HUMC1; HUMC1, RPMI + acetonitrile treated <10 kDa MHII fraction, Organic Layer, listed as RBT) of 4.00 µg/mL. The MIC (A. baumannii HUMC1; HUMC1, RPMI + efflux pump inhibitor CCCP (2 μg/mL), listed as RBT) was 0.05 µg/mL, the MIC (A. baumannii HUMC1; HUMC1, RPMI Supplemented with MHII (hybrid media, equal parts)) was 8 µg/mL (≈ 9.44 µM) and the MIC (A. baumannii HUMC1; HUMC1, RPMI Supplemented with MHII (hybrid media, equal parts), listed as RBT) was 8.00 µg/mL (≈ 9.44 µM). For the same compound, the “fold lower MIC of RBT as compared to RIF” value (A. baumannii HUMC1; HUMC1, RPMI, listed as RBT) was 133 fold and 200 fold, the Rifabutin MIC (A. baumannii HUMC1; MHII) was 3.12 µg/mL and the Rifabutin MIC (A. baumannii HUMC1; RPMI) was 0.0156 µg/mL. The “fold more potent than rifampin (RIF)” value (A. baumannii; A. baumannii, RPMI with serum) was 133 fold, the Rifabutin MIC (A. baumannii; AB044, MHII) was 3.12 µg/mL and the Rifabutin MIC (A. baumannii; AB044, RPMI) was 0.78 µg/mL. The Rifabutin MIC (A. baumannii; AB046, MHII) was 0.19 µg/mL and the Rifabutin MIC (A. baumannii; AB046, MHII (first line)) was 6.25 µg/mL.
